Legend:
[1] = Pharmacokinetics of gefitinib in rats, alone and coadministered with CJ (serum, LC-MS/MS); type: in vivo; conditions: for Change (increase) of AUC0-t of gefitinib / Change (increase) of Cmax of gefitinib: coadministration with CJ (5.0 g/kg of cranberry) vs gefitinib alone, p < 0.05; for Change (increase) of AUC0-t of gefitinib / Change (increase) of Cmax of gefitinib / AUC(0-t) / Cmax / MRT / Tmax: rats; for AUC(0-t) / Cmax / MRT / Tmax: male, Sprague-Dawley, rat, serum, po, 50 mg/kg, mean ± S.E., n = 5
Description: Twelve male Sprague-Dawley rats (300–400 g) were supplied by BioLASCO Taiwan Co., Ltd. […] […] Rats were fasted for 12 h before dosing, and food was offered 3 h after drug administration. […] The serum was collected after centrifugation at 10,000× g for 15 min and stored at −20 °C until analysis.
Briefly, 50 μL of serum was partitioned with an equal volume of ethyl acetate containing erlotinib (0.5 μg/mL) as internal standard. The ethyl acetate layer was evaporated under N2 gas to dryness and reconstituted with 50 μL of acetonitrile containing 0.1% formic acid, and then 5 μL was subject to LC-MS/MS analysis.
The mobile phase consisted of 0.1% formic acid (A) and acetonitrile containing 0.1% formic acid (B), and a gradient elution was programmed as follows: A/B: 80/20 (0–1.0 min), 0/100 (1.0–3.5 min) and 80/20 (3.5–6.5 min). The flow rate was 0.2 mL/ min. Nitrogen was used as sheath gas at 50 arbitrary units and auxiliary gas at 10 arbitrary units. […] ESI-MS spectra were recorded in the positive ion mode.
Pharmacokinetic parameters were calculated by the noncompartment model of Phoenix WinNonlin® (version 8.1 Pharsight Corporation, St. Louis, MO, USA). The peak serum concentration (Cmax) was calculated based on experimental measurement. The areas under the serum concentration–time curves (AUC0-t) from time zero to last were calculated by the trapezoidal rule. Each pharmacokinetic parameter was compared among various treatment groups using one-way analysis of variance (ANOVA) with Scheffe’s test. Other studies were statistically compared using unpaired Student’s t-test. Statistical significance level was set at p < 0.05.

[2] = cited from earlier work
[3] = gefitinib 50 mg/kg oral + water
[4] = gefitinib 50 mg/kg oral coadministered with CJ (5.0 g/kg of cranberry)

Change (increase) of AUC0-t of gefitinib [1]	Change (increase) of Cmax of gefitinib [1]	Change (increase) of AUC0-t of gefitinib ([1]; listed as gefitinib) [%]	Change (increase) of Cmax of gefitinib ([1]; listed as gefitinib) [%]	AUC(0-t) [1, 3] [ng·h/mL]	Cmax [1, 3] [ng/mL]	MRT [1, 3] [h]	Tmax [1, 3] [h]	AUC(0-t) [1, 4] [ng·h/mL]	Cmax [1, 4] [ng/mL]	MRT [1, 4] [h]	Tmax [1, 4] [h]	Concentrations of O-desmethyl gefitinib in serum ([1]; rat serum samples after oral gefitinib 50 mg/kg, calibration range 0.50–0.03 μg/mL)	Structure (SMILES)	Bioavailability [2]	Elimination half-life [2] [h]
(+55%)	(+28%)	55	28	19500	1800 ± 300	8.52	4.4	30300	2300 ± 200	9.05	3.6		COc1cc2ncnc(Nc3ccc(F)c(Cl)c3)c2cc1OCCCN1CCOCC1 [Gefitinib]	57–59%	> 24
												below the LLOQ	Oc1cc2ncnc(Nc3ccc(F)c(Cl)c3)c2cc1OCCCN1CCOCC1 [O-desmethyl gefitinib]		

Reference: paper PMC9501900 (Molecules, 2022)
